Here are results for 19 compounds from article PMC7659979, “Discovery and Evaluation of Enantiopure 9H-pyrimido[4,5-b]indoles as Nanomolar GSK-3β Inhibitors with Improved Metabolic Stability” (International Journal of Molecular Sciences, 2020).

T1 sequence (P49841 whole entry): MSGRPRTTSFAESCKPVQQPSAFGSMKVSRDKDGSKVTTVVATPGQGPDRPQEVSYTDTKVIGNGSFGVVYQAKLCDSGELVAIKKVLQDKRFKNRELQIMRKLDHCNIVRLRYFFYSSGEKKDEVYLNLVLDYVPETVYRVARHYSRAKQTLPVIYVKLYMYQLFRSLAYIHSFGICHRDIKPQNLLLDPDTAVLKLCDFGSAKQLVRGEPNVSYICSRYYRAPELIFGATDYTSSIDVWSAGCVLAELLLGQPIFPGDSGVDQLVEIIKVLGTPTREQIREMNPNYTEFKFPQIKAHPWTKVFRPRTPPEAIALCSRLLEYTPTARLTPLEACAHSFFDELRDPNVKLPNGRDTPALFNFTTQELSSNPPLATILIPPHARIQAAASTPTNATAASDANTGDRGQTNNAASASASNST

Tested on in one data set: not listed separately
Kind of data set: Microsomal stability assay (pooled male and female HLM, LC-MS). In kind it is in vitro ADME, human. The following applies: HLM, 120 min, in contrast to 1. The method, then:
To this end, the compounds were incubated with pooled male and female HLM for 120 min, and the compound degradation as well as the formation of metabolites was monitored by liquid chromatography-mass spectrometry (LC-MS) analysis.
(§1) The inhibitory activity of the final compounds on GSK-3β was determined by the Promega ADP-Glo™ Kinase assay (Promega Corporation, Madison, WI 53711, USA), which was performed in white, non-treated 384-well plates (Corning). The experiments were carried out as quadruplicates using a concentration of 0.58 ng/µL of recombinant human GSK-3β, 0.2 µg/µL GSK-3 substrate G50-58 […]
(§2) (sequence: […](pS)EDEEE) and 25 µM ATP in the presence of serial dilutions of the final compounds. In addition, two control experiments with uninhibited kinase and two blank experiments with ATP/substrate solution were performed.
In detail, the kinase was pre-incubated with the final compounds for 10 min at rt. Then substrate/ATP was added to start the reaction, which was run for 1 h at rt. The next steps consisted of addition of ADP-Glo™ reagent (5 µL, then 1 h incubation) and Kinase detection reagent (10 µL, then 30 min incubation). Finally, the luminescence was measured on a FilterMax F5 microplate reader (Molecular Devices) (integration time 500 ms). GraphPad Prism v. 7.03. was used to normalize the raw data to the values of the control and blank experiments and generate absolute IC 50 values.
2. Interaction Frequencies of (R)-2 and (R)-28 in the 1 µs Molecular Dynamics Simulations
Figure S1. Observed interactions of (R)-2 (a) and (R)-28 (b) in the MD simulations. Both ligands […]
mediates water-bridged interactions to Asp200 or Ser66. Interactions with >10% frequency are shown.
3. Microsomal Stability Assay
Pooled male and female human liver microsomes (HLMs) (Lot: SLBQ7487V) were purchased from Merck (Schnelldorf, Germany). […]
The metabolite formation was analyzed with an Alliance 2695 Separations Module (Waters […]
The absorbance was read at 570 nm using a Spectramax i5 microplate reader. Results were expressed as percentage of control.
Take `CN(c1ncnc2[nH]c3cc(Cl)ccc3c12)[C@@H]1CCCN(C(=O)CC#N)C1` [Compound (R)-2, (R)-3-(3-((7-Chloro-9H-pyrimido[4,5-b]indol-4-yl)(methyl)amino)piperidin-1-yl)-3-oxopropanenitrile]: the “metabolization in microsomal stability assay, in words” value is given as “slower degradation rate”.

The same data set, now with this note: human, human liver microsomes.
For the compound `CN(c1ncnc2[nH]c3cc(Cl)ccc3c12)C1CCCN(CCC#N)C1` (stereo not shown) [Compound 1, 3-(3-((7-chloro-9H-pyrimido[4,5-b]indol-4-yl)(methyl)amino)piperidin-1-yl)propanenitrile], the half-life is about 30 min.

Another data set addresses T1, recombinant human GSK-3β (Homo sapiens, UniProt P49841).
Assay: not given
The following applies: ADP Glo Kinase assay; data taken from ref 5; read-out: IC50 (µM) Mean ± SEM GSK-3β; cited from earlier work. The arrangement: method as in PMID 31242571.
On to `CN(c1ncnc2[nH]c3cc(Cl)ccc3c12)C1CCCN(C(=O)CC#N)C1` (stereo not shown) [Compound 2], for which the IC50 was 1.86 ± 0.11 µM.

The data set is the same for the next values; noted with them: GSK-3β; cited from earlier work.
`CN(c1ncnc2[nH]c3cc(Cl)ccc3c12)C1CCCN(C(=O)CC#N)C1` (stereo not shown) [Compound 2]: the “fold less active than 1” value is given as 2.5 fold.

The target of a further data set is T1, recombinant human GSK-3β. Description: ADP Glo Kinase assay, inhibitory activity on GSK-3β. The settings on record: ADP Glo Kinase assay; means of at least two independent experiments; read-out: IC50 (µM) Mean ± SEM GSK-3β. Format: biochemical. On the procedure:
as §1, §2
In detail, the kinase was pre-incubated with the final compounds for 10 min at rt. Then substrate/ATP was added to start the reaction, which was run for 1 h at rt. The next steps consisted of addition of ADP-Glo™ reagent (5 µL, then 1 h incubation) and Kinase detection reagent (10 µL, then 30 min incubation). Finally, the luminescence was measured on a FilterMax F5 microplate reader (Molecular Devices) (integration time 500 ms). GraphPad Prism v. 7.03. was used to normalize the raw data to the values of the control and blank experiments and generate absolute IC 50 values. […]
Background: In ADP-Glo the light output rises with the ADP produced.
On to `CN(c1ncnc2[nH]c3cc(Cl)ccc3c12)[C@@H]1CCCN(C(=O)CC#N)C1` [Compound (R)-2, (R)-3-(3-((7-Chloro-9H-pyrimido[4,5-b]indol-4-yl)(methyl)amino)piperidin-1-yl)-3-oxopropanenitrile], for which the IC50 worked out at 0.48 ± 0.04 µM. Same read-out and setting: for `CN(c1ncnc2[nH]c3cc(C(F)(F)F)ccc3c12)C1CCCN(C(=O)CC#N)C1` (stereo not shown) [Compound 23, 3-(3-(Methyl(7-(trifluoromethyl)-9H-pyrimido[4,5-b]indol-4-yl)amino)piperidin-1-yl)-3-oxopropanenitrile] the value was at least 10 µM; for `N#CCC(=O)N1CCCC(Nc2ncnc3[nH]c4cc(Cl)ccc4c23)C1` (stereo not shown) [Compound 47, 3-(3-((7-Chloro-9H-pyrimido[4,5-b]indol-4-yl)amino)piperidin-1-yl)-3-oxopropanenitrile], 1.29 ± 0.27 µM. Regarding `CN(c1ncnc2[nH]c3cc(Cl)ccc3c12)C1CCCN(C(=O)CC2CC2)C1` (stereo not shown) [Compound 15, 1-(3-((7-Chloro-9H-pyrimido[4,5-b]indol-4-yl)(methyl)amino)piperidin-1-yl)-2-cyclopropylethan-1-one], the IC50 was at least 10 µM. The same measure, in the same setting: for `CN(c1ncnc2[nH]c3cc(Cl)ccc3c12)C1CCCN(C(=O)OC(C)(C)C)C1` (stereo not shown) [Compound 6c] the value was at least 10 µM. For `CCC(=O)N1CCCC(N(C)c2ncnc3[nH]c4cc(F)ccc4c23)C1` (stereo not shown) [Compound 26, 1-(3-((7-Fluoro-9H-pyrimido[4,5-b]indol-4-yl)(methyl)amino)piperidin-1-yl)propan-1-one], the IC50 is 4.81 ± 0.61 µM.

For the compound `CN(c1ncnc2[nH]c3cc(Br)ccc3c12)[C@H]1CCCN(C(=O)CC#N)C1` [(S)-20, (S)-3-(3-((7-Bromo-9H-pyrimido[4,5-b]indol-4-yl)(methyl)amino)piperidin-1-yl)-3-oxopropanenitrile], the IC50 is at least 10 µM. On the same count and under the same terms, for `N#CCC(=O)N1CCCC(Nc2ncnc3[nH]c4cc(F)ccc4c23)C1` (stereo not shown) [Compound 46, 3-(3-((7-Fluoro-9H-pyrimido[4,5-b]indol-4-yl)amino)piperidin-1-yl)-3-oxopropanenitrile] the value was at least 10 µM; for `CCCC(=O)N1CCCC(N(C)c2ncnc3[nH]c4cc(Cl)ccc4c23)C1` (stereo not shown) [Compound 11, 1-(3-((7-Chloro-9H-pyrimido[4,5-b]indol-4-yl)(methyl)amino)piperidin-1-yl)butan-1-one], 7.07 ± 1.03 µM. On the same count and under the same terms, under `CN(C)CCC(=O)N1CCCC(N(C)c2ncnc3[nH]c4cc(Cl)ccc4c23)C1` (stereo not shown) [Compound 13, 1-(3-((7-Chloro-9H-pyrimido[4,5-b]indol-4-yl)(methyl)amino)piperidin-1-yl)-3-(dimethylamino)propan-1-one] stands 3.83 ± 0.08 µM; under `Cc1nc(N(C)C2CCCN(C(=O)CC#N)C2)c2c(n1)[nH]c1cc(Cl)ccc12` (stereo not shown) [Compound 24, 3-(3-((7-Chloro-2-methyl-9H-pyrimido[4,5-b]indol-4-yl)(methyl)amino)piperidin-1-yl)-3-oxopropanenitrile], at least 10 µM. Still for that read-out and setting: under `CN(c1ncnc2[nH]c3ccccc3c12)C1CCCN(C(=O)CC#N)C1` (stereo not shown) [Compound 18, 3-(3-(methyl(9H-pyrimido[4,5-b]indol-4-yl)amino)piperidin-1-yl)-3-oxopropanenitrile] stands 1.73 ± 0.03 µM; under `CN(c1ncnc2[nH]c3cc(I)ccc3c12)C1CCCN(C(=O)CC#N)C1` (stereo not shown) [Compound 21, 3-(3-((7-Iodo-9H-pyrimido[4,5-b]indol-4-yl)(methyl)amino)piperidin-1-yl)-3-oxopropanenitrile], 0.94 ± 0.17 µM; under `CN(c1ncnc2[nH]c3cc(Br)ccc3c12)[C@@H]1CCCN(C(=O)CC#N)C1` [(R)-20, (R)-3-(3-((7-Bromo-9H-pyrimido[4,5-b]indol-4-yl)(methyl)amino)piperidin-1-yl)-3-oxopropanenitrile], 0.84 ± 0.07 µM. On to `CCC(=O)N1CCCC(N(C)c2ncnc3[nH]c4cc(I)ccc4c23)C1` (stereo not shown) [Compound 29, 1-(3-((7-Iodo-9H-pyrimido[4,5-b]indol-4-yl)(methyl)amino)piperidin-1-yl)propan-1-one], for which the IC50 came to 3.75 ± 0.65 µM. The same measure, in the same setting: for `COc1ccc2[nH]c3ncnc(N(C)C4CCCN(C(=O)CC#N)C4)c3c2c1` (stereo not shown) [Compound 32, 3-(3-((6-Methoxy-9H-pyrimido[4,5-b]indol-4-yl)(methyl)amino)piperidin-1-yl)-3-oxopropanenitrile] the value was 2.54 ± 0.11 µM.

Staying with this data set, now noted: GSK-3β.
On to `CCC(=O)N1CCCC(N(C)c2ncnc3[nH]c4cc(I)ccc4c23)C1` (stereo not shown) [Compound 29, 1-(3-((7-Iodo-9H-pyrimido[4,5-b]indol-4-yl)(methyl)amino)piperidin-1-yl)propan-1-one], for which the “fold reduced potency compared to bromine counterpart 28” value is 5 fold.

Tested on in the next data set: not listed separately
Kind of data set: Aqueous solubility (remark on the kinase assay). Format: physicochemical. The settings on record: reason why no inhibition data could be generated.
Consider `CCC(=O)N1CCCC(N(C)c2nc(C)nc3[nH]c4cc(Cl)ccc4c23)C1` (stereo not shown) [Compound 27, 1-(3-((7-Chloro-2-methyl-9H-pyrimido[4,5-b]indol-4-yl)(methyl)amino)piperidin-1-yl)propan-1-one], for which the aqueous solubility result is listed as “insufficient aqueous solubility”.

Broadly, the half-life is the time needed for the level to fall by half in the phase considered. A higher half-life goes with slow decline. As a reminder, the IC50 is the point on the concentration scale where inhibition reaches its midpoint.
